Experiments:
Acinetobacter baumannii [1] = test: Potentiation of ceftolozane-induced antibacterial activity against carbapenem-resistant Acinetobacter baumannii assessed as ceftolozane MIC50 at 8 ug/ml by broth microdilution method (Rvb > 32 ug/ml); assay type: functional
Enterobacterales = test: Potentiation of ceftolozane-induced antibacterial activity against Enterobacterales assessed as ceftolozane MIC50 at 8 ug/ml by broth microdilution method (reference value: 32 ug/ml); assay type: functional
[2] = Cmax in rat at 300 mg/kg, po administered via gavage by HPLC/MS analysis; assay type: ADME, organism-based; parameters: dose 300 mg/kg, route oral; settings: in vivo
Enterobacteriaceae [3] = test: Inhibition of OXA-48 in carbapenem-resistant Enterobacteriaceae assessed as potentiation of meropenem-induced antibacterial activity by measuring meropenem MIC50 at 8 ug/ml by broth microdilution method (reference value: 32 ug/ml)
Enterobacteriaceae [4] = test: Inhibition of NDM/VIM in carbapenem-resistant Enterobacteriaceae assessed as potentiation of ceftolozane-induced antibacterial activity by measuring ceftolozane MIC50 at 8 ug/ml by broth microdilution method (Rvb > 32 ug/ml)
Escherichia coli [5] = test: Inhibition of Escherichia coli KP308 SHV-5 assessed as minimum concentration of compound required to reduce the MIC of aztreonam to 4 ug/ml
Plasminogen = Plasminogen (Homo sapiens, UniProt P00747); test: Inhibition of mammalian plasmin (unknown origin) using H-D-VLK-pNA as substrate preincubated for 10 mins followed by substrate addition measured after 30 mins
Sequence of Plasminogen (P00747 97-580 limits assumed): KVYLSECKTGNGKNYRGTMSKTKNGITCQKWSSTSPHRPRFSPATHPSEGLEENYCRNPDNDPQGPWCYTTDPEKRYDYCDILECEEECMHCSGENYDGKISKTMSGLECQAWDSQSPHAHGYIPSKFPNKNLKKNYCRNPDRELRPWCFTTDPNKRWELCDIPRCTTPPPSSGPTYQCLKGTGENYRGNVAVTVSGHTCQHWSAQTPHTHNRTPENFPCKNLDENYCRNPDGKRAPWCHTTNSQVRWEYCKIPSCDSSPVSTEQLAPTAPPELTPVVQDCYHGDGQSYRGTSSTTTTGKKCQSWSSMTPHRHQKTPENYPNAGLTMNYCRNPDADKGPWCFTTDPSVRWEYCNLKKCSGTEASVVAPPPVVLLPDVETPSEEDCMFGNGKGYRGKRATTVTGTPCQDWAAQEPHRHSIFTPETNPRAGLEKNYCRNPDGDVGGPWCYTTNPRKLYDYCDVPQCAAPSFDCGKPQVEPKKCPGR
Sequence of Plasminogen (P00747 581-810 limits assumed): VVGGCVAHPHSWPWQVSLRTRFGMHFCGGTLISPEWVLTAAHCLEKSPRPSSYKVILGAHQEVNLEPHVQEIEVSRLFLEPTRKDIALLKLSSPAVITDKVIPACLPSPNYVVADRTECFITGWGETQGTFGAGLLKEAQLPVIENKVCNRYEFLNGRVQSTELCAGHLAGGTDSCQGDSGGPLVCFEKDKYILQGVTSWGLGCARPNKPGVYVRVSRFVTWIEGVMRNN

[6] = Lipophilicity, log D of the compound at pH 7.4; assay type: physicochemical; settings: buffer
[7] = target: Endothelin-converting enzyme 1 (Homo sapiens, UniProt P42892); test: Inhibition of mammalian ECE-1 (unknown origin) using MCA-RPPGFSAFK(DNP)-OH as substrate preincubated for 10 mins followed by substrate addition measured after 30 mins
Sequence of Endothelin-converting enzyme 1 (P42892 whole entry): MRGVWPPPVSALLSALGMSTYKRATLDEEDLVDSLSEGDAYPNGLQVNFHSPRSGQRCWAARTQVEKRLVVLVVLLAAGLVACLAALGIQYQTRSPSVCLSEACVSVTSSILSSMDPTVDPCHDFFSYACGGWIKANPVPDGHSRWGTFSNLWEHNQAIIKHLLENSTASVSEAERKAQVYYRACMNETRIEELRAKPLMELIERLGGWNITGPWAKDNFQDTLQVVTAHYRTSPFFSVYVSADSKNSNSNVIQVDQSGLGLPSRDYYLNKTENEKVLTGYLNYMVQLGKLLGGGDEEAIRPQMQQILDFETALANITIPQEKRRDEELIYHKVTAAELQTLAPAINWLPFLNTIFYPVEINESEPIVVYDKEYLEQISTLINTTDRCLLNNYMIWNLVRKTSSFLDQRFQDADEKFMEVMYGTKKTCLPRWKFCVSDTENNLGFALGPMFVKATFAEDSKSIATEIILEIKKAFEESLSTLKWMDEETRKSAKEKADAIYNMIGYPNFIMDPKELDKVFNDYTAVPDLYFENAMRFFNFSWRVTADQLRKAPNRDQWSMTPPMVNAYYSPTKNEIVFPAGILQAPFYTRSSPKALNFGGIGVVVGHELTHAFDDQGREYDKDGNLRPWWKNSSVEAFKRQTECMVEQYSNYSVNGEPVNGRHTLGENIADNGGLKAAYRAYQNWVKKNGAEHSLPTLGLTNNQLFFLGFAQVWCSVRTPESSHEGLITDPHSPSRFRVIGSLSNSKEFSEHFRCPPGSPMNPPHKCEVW

[8] = Oral bioavailability in rat at 30 mg/kg in fasted state by HPLC/MS analysis; assay type: ADME, organism-based; settings: in vivo
Pseudomonas aeruginosa [9] = test: Potentiation of cefepime-induced antibacterial activity against Pseudomonas aeruginosa assessed as cefepime MIC50 at 8 ug/ml by broth microdilution method (reference value: 4 ug/ml); assay type: functional
Klebsiella pneumoniae [10] = test: Potentiation of cefepime-induced antibacterial activity against carbapenem-resistant Klebsiella pneumoniae assessed as cefepime MIC50 at 8 ug/ml by broth microdilution method (reference value: 32 ug/ml); assay type: functional
Enterobacteriaceae [11] = test: Potentiation of meropenem-induced antibacterial activity against carbapenem-resistant Enterobacteriaceae assessed as meropenem MIC90 at 8 ug/ml by broth microdilution method (reference value: 16 ug/ml); assay type: functional
Pseudomonas aeruginosa [12] = test: Inhibition of Pseudomonas aeruginosa PAM 2035 AmpC assessed as minimum concentration of compound needed to reduce the MIC of aztreonam to 4 ug/ml
[13] = target: Beta-lactamase (Klebsiella pneumoniae) (UniProt Q93LQ9); test: Inhibition of Klebsiella pneumoniae KP1004 KPC-2 assessed as minimum concentration of compound needed to reduce the MIC of aztreonam to 4 ug/ml
Sequence of Beta-lactamase (Klebsiella pneumoniae) (Q93LQ9 as listed by the source): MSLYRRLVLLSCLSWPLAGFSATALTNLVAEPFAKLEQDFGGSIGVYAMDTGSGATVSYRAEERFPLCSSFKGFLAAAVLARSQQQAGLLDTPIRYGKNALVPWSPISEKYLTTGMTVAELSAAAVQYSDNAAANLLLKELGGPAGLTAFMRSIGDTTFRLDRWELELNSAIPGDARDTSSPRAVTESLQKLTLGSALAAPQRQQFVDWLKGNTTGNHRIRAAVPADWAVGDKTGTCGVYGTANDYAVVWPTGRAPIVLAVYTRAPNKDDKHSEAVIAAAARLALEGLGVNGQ

[14] = Inhibition of recombinant Escherichia coli IMP-1 using imipenem as substrate preincubated for 10 mins followed by substrate addition measured every 30 secs for 30 mins by spectrophotometrically analysis
Acinetobacter baumannii [15] = test: Potentiation of cefepime-induced antibacterial activity against carbapenem-resistant Acinetobacter baumannii assessed as cefepime MIC90 at 8 ug/ml by broth microdilution method (Rvb > 32 ug/ml); assay type: functional
[16] = AUC in rat at 300 mg/kg, iv administered as infusion for 0.5 hrs by HPLC/MS analysis; assay type: ADME, organism-based; settings: in vivo
[17] = AUC in rat at 300 mg/kg, po administered via gavage by HPLC/MS analysis; assay type: ADME, organism-based; settings: in vivo
Klebsiella pneumoniae [18] = test: Potentiation of meropenem-induced bacteriostatic activity against carbapenem-resistant Klebsiella pneumoniae KP1244 harboring KPC-3, SHV-11, and SHV-12 infected in Swiss-Webster mouse model of neutropenic thigh infection assessed as log change in bacterial count in thigh at 50 mg/kg, ip administered at 2 hrs interval for 24 hrs starting from 2 hr post infection and measured post last dose (reference value: 0.62 log10CFU); assay type: functional
Escherichia coli [19] = test: Inhibition of Escherichia coli EC302 TEM-10 assessed as minimum concentration of compound needed to reduce the MIC of aztreonam to 4 ug/ml
Klebsiella pneumoniae [20] = test: Potentiation of cefepime-induced antibacterial activity against carbapenem-resistant Klebsiella pneumoniae assessed as cefepime MIC90 at 8 ug/ml by broth microdilution method (Rvb > 32 ug/ml); assay type: functional
[21] = Cmax in rat at 300 mg/kg, iv administered as infusion for 0.5 hrs by HPLC/MS analysis; assay type: ADME, organism-based; parameters: dose 300 mg/kg, route intravenous; settings: in vivo
[22] = Oral bioavailability in rat at 300 to 1000 mg/kg in fasted condition by HPLC/MS analysis; assay type: ADME, organism-based; settings: in vivo
Acinetobacter baumannii [23] = test: Potentiation of ceftolozane-induced antibacterial activity against carbapenem-resistant Acinetobacter baumannii assessed as ceftolozane MIC90 at 8 ug/ml by broth microdilution method (Rvb > 32 ug/ml); assay type: functional
Enterobacteriaceae [24] = test: Inhibition of NDM/VIM in carbapenem-resistant Enterobacteriaceae assessed as potentiation of meropenem-induced antibacterial activity by measuring meropenem MIC50 at 8 ug/ml by broth microdilution method (reference value: 32 ug/ml)
Enterobacteriaceae [25] = test: Potentiation of ceftolozane-induced antibacterial activity against carbapenem-resistant Enterobacteriaceae assessed as ceftolozane MIC50 at 8 ug/ml by broth microdilution method (Rvb > 32 ug/ml); assay type: functional
[26] = Half life in rat at 300 mg/kg, iv administered as infusion for 0.5 hrs by HPLC/MS analysis; assay type: ADME, organism-based; settings: in vivo
[27] = Oral bioavailability in rat at 30 mg/kg administered via gavage by HPLC/MS analysis; assay type: ADME, organism-based; settings: in vivo
Cathepsin G = Cathepsin G (Homo sapiens, UniProt P08311); test: Inhibition of mammalian cathepsin G (unknown origin) using Suc-AAPF-AMC as substrate preincubated for 10 mins followed by substrate addition measured after 30 mins
Sequence of Cathepsin G (P08311 whole entry): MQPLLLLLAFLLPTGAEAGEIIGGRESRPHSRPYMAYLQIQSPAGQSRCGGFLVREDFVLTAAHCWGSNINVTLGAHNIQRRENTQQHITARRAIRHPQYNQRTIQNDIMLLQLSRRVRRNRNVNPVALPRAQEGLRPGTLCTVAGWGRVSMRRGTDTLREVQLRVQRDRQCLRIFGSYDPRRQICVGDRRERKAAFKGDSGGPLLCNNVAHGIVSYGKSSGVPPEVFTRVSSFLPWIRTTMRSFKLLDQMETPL

Trypsin = Trypsin (Homo sapiens, UniProt P07477+P07478+P35030); test: Inhibition of mammalian trypsin (unknown origin) using N-Bz-R-AMC as substrate preincubated for 10 mins followed by substrate addition measured after 30 mins; assay type: protein assay
[28] = AUC in rat at 100 mg/kg, po administered via gavage by HPLC/MS analysis; assay type: ADME, organism-based; settings: in vivo
[29] = Cmax in rat at 10 mg/kg, iv administered as infusion for 0.5 hrs by HPLC/MS analysis; assay type: ADME, organism-based; parameters: dose 10 mg/kg, route intravenous; settings: in vivo
[30] = Oral bioavailability in rat at 1000 mg/kg administered via gavage by HPLC/MS analysis; assay type: ADME, organism-based; settings: in vivo
[31] = target: Angiotensin-converting enzyme 2 (Homo sapiens, UniProt Q9BYF1); test: Inhibition of mammalian ACE-2 (unknown origin) using Mca-APK(Dnp) as substrate preincubated for 10 mins followed by substrate addition measured after 30 mins
Sequence of Angiotensin-converting enzyme 2 (Q9BYF1 whole entry): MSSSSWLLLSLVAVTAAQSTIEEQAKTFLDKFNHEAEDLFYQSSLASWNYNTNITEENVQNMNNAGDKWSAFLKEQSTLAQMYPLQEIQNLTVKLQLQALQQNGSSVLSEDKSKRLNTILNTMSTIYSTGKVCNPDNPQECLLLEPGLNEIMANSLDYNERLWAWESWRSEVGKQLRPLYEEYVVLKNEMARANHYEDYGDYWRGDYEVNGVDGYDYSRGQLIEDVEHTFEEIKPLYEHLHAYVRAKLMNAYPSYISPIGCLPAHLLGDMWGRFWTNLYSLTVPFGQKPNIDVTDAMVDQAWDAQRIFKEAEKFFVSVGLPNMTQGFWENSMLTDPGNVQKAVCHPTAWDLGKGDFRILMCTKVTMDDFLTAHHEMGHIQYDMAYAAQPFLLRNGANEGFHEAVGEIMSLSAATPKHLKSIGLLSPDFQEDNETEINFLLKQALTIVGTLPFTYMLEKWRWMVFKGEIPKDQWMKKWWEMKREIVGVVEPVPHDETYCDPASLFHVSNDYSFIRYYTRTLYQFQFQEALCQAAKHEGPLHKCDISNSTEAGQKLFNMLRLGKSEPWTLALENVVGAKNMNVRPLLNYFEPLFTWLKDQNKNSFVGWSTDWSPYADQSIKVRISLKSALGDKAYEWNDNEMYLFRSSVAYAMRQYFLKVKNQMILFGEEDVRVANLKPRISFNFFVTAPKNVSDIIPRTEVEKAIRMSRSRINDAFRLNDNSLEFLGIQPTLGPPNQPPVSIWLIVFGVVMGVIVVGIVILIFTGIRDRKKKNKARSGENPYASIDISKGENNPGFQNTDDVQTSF

[32] = Oral bioavailability in rat at 300 mg/kg administered via gavage by HPLC/MS analysis; assay type: ADME, organism-based; settings: in vivo
[33] = Inhibition of recombinant Escherichia coli SHV-12 using nitrocefin as substrate preincubated for 10 mins followed by substrate addition measured every 10 secs for 10 mins by spectrophotometrically analysis
Acinetobacter baumannii [34] = test: Potentiation of meropenem-induced antibacterial activity against carbapenem-resistant Acinetobacter baumannii assessed as meropenem MIC50 at 8 ug/ml by broth microdilution method (Rvb > 32 ug/ml); assay type: functional

## O=C(O)c1c(F)ccc2c1OB(O)[C@@H]1C[C@H]21 [XERUBORBACTAM]
Acinetobacter baumannii [1]
  MIC50: 8 µg/mL
Enterobacterales
  MIC50: 0.125 µg/mL
[2]
  Cmax: 52 µg/mL
Enterobacteriaceae [3]
  MIC50: < 0.06 µg/mL
Enterobacteriaceae [4]
  MIC50: 16 µg/mL
Escherichia coli [5]
  MEC: 0.3 µg/mL
Plasminogen
  IC50: > 1000 µM
[6]
  logD: -2.85
[7]
  IC50: 431 µM
[8]
  bioavailability: 43%
Pseudomonas aeruginosa [9]
  MIC50: 2 µg/mL
Klebsiella pneumoniae [10]
  MIC50: ≤ 0.06 µg/mL
Enterobacteriaceae [11]
  MIC90: 0.25 µg/mL
Pseudomonas aeruginosa [12]
  MEC: 5 µg/mL
[13]
  MEC: 0.3 µg/mL
[14]
  Ki: 0.22 µM
Acinetobacter baumannii [15]
  MIC90: 32 µg/mL
[16]
  AUC at 0.5 h: 608 µg·h/mL
[17]
  AUC: 177 µg·h/mL
Klebsiella pneumoniae [18]
  Activity: -2.26 log10CFU
Escherichia coli [19]
  MEC: 0.16 µg/mL
Klebsiella pneumoniae [20]
  MIC90: 0.25 µg/mL
[21]
  Cmax: 544 µg/mL
[22]
  bioavailability: 24 to 28%
Acinetobacter baumannii [23]
  MIC90: 32 µg/mL
Enterobacteriaceae [24]
  MIC50: < 0.015 µg/mL
Enterobacteriaceae [25]
  MIC50: 0.125 µg/mL
[26]
  half-life: 1.18 h
[27]
  bioavailability: 53.2%
Cathepsin G
  IC50: 666 µM
Trypsin
  IC50: > 1000 µM
[28]
  AUC: 89.7 µg·h/mL
[29]
  Cmax: 26.1 µg/mL
[30]
  bioavailability: 24.3%
[31]
  IC50: > 1000 µM
[32]
  bioavailability: 28%
[33]
  Ki: 0.00074 µM
Acinetobacter baumannii [34]
  MIC50: 0.5 µg/mL
